Reference: patent US11059780B2, “Substituted pyrrolidine compound and use thereof” (Takeda Pharmaceutical Company Limited, priority 2017, dated 2021)

Biological target: T1, human orexin type 2 receptor (hOX2R) (Homo sapiens, UniProt O43614)
T1 construct: expressed in transfected cells
T1 sequence (O43614 1-444): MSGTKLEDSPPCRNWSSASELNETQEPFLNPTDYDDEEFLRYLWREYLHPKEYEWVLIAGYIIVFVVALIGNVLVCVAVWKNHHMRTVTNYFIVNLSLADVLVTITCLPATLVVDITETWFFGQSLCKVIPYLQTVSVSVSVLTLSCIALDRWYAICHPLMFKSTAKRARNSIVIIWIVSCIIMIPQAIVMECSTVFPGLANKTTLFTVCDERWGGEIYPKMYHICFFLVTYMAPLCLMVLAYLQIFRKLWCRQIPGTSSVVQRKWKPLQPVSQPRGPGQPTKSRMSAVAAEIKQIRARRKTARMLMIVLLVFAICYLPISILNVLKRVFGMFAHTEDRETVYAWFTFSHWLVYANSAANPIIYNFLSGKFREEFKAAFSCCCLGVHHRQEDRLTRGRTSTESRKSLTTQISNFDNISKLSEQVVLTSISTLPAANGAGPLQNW
Experiment: Measurement of orexin type 2 receptor agonist activity (Fluo-4 calcium fluorescence, CHO cells forcibly expressing human OX2 receptor)
Type: cell-based
Details: test compound 3 μM, DMSO = 0%, orexin A (human) 10 nM = 100%
From the text: Experimental Example 1: Obtainment of Cell Stably Expressing Human Orexin Type 2 Receptor (hOX2R)
To obtain a cell clone stably expressing human orexin type 2 receptor, human orexin type 2 receptor cDNA was inserted into pcDNA3.1(+) plasmid vector (Invitrogen), and a plasmid DNA for expression of human orexin type 2 receptor (pcDNA3.1(+)/hOX2R) was cloned. The plasmid DNA was introduced into CHO-dhfr cell by an electroporation method, and human orexin type 2 receptor expressing clone cells were obtained by limiting dilution method by using G418 drug resistance as a selection marker.
Experimental Example 2: Measurement of Orexin Type 2 Receptor Agonist Activity
CHO cells forcibly expressing human OX2 receptor were seeded in each well of 384 well black transparent bottom plate (BD Falcon) at 7,500 cells/well, and cultured for one day in a 5% CO2 incubator at 37° C. After removal of the medium in the cell plate, assay buffer A containing a calcium indicator (HBSS (Life Technologies), 20 mM HEPES (Life Technologies), 0.1% BSA (Wako Pure Chemical Industries, Ltd.), 2.5 μg/mL Fluo-4 AM (DOJINDO Chemical), 0.08% Pluronic F127 (DOJINDO Chemical), 1.25 mM probenecid (DOJINDO Chemical)) was added at 30 μL/well. The plate was stood for 30 min in a 5% CO2 incubator at 37° C., and further stood at room temperature for 30 min. A test compound prepared by diluting with assay buffer B (HBSS, 20 mM HEPES, 0.1% BSA) was added at 10 μL/well, and the fluorescence value was measured by FDSSpCELL (Hamamatsu Photonics K.K.) every one sec for 1 min, and thereafter every two sec for 1 min 40 sec. The activity (%) of the test compound was calculated assuming that variation in the fluorescence value when DMSO was added instead of the test compound was 0% […], and variation in the fluorescence value when orexin A (human) (PEPTIDE INSTITUTE, INC.) was added at the final concentration of 10 nM was 100% […]. The activity of each compound at the concentration of 3 μM was shown below.

Point of comparison: CO[C@@H]1CN(C(=O)c2cc(C)ccc2C)C[C@H]1Oc1cccc(CS(=O)(=O)N2CCC23CN(C(=O)OC(C)(C)C)C3)c1 (relative stereo) [Example 32, tert-butyl trans-1-((3-((1-(2,5-dimethylbenzoyl)-4-methoxypyrrolidin-3-yl)oxy)benzyl)sulfonyl)-1,6-diazaspiro[3.3]heptane-6-carboxylate], “OX2R agonist activity (3 μM, %)” value 109%. Against it:
- CO[C@@H]1CN(C(=O)c2cc(C)ccc2C)C[C@H]1Oc1cccc(NS(=O)(=O)N2CCOCC2)c1 (relative stereo) [Example 4, trans-N-(3-((1-(2,5-dimethylbenzoyl)-4-methoxypyrrolidin-3-yl)oxy)phenyl)morpholine-4-sulfonamide] — lower, 87%
- CO[C@@H]1CN(C(=O)c2cc(C)ccc2C)C[C@H]1Oc1cccc(CS(=O)(=O)N2CCCC2)c1 (relative stereo) [Example 5, trans-(2,5-dimethylphenyl)(3-methoxy-4-(3-((pyrrolidin-1-ylsulfonyl)methyl)phenoxy)pyrrolidin-1-yl)methanone] — lower, 32%
- CO[C@@H]1CN(C(=O)c2cc(C)ccc2C)C[C@H]1Oc1cccc(CS(=O)(=O)N(C)c2ccncc2)c1 (relative stereo) [Example 7, trans-1-(3-((1-(2,5-dimethylbenzoyl)-4-methoxypyrrolidin-3-yl)oxy)phenyl)-N-methyl-N-(pyridin-4-yl)methanesulfonamide] — lower, 32%
- CO[C@@H]1CN(C(=O)c2cc(C)ccc2C)C[C@H]1Oc1cccc(CS(=O)(=O)N2CCOCC2CO)c1 (relative stereo) [Example 11, trans-(2,5-dimethylphenyl)(3-(3-(((3-(hydroxymethyl)morpholin-4-yl)sulfonyl)methyl)phenoxy)-4-methoxypyrrolidin-1-yl)methanone] — lower, 62%
- COC(=O)C1COCCN1S(=O)(=O)Cc1cccc(O[C@@H]2CN(C(=O)c3cc(C)ccc3C)C[C@H]2OC)c1 (relative stereo) [Example 12, methyl trans-4-((3-((1-(2,5-dimethylbenzoyl)-4-methoxypyrrolidin-3-yl)oxy)benzyl)sulfonyl)morpholine-3-carboxylate] — lower, 60%
- CO[C@@H]1CN(C(=O)c2cc(C)ccc2C)C[C@H]1Oc1cccc(CS(=O)(=O)N2CCCC2c2ccccn2)c1 (relative stereo) [Example 15, trans-(2,5-dimethylphenyl)(3-methoxy-4-(3-(((2-(pyridin-2-yl)pyrrolidin-1-yl)sulfonyl)methyl)phenoxy)pyrrolidin-1-yl)methanone] — lower, 80%
- CO[C@@H]1CN(C(=O)c2cc(C)ccc2C)C[C@H]1Oc1cccc(CS(=O)(=O)N2CCCC2c2cccnc2)c1 (relative stereo) [Example 16, trans-(2,5-dimethylphenyl)(3-methoxy-4-(3-(((2-(pyridin-3-yl)pyrrolidin-1-yl)sulfonyl)methyl)phenoxy)pyrrolidin-1-yl)methanone] — lower, 77%
- CO[C@@H]1CN(C(=O)c2cc(C)ccc2C)C[C@H]1Oc1cccc(CS(=O)(=O)N2CCCC2c2ccncc2)c1 (relative stereo) [Example 18, trans-(2,5-dimethylphenyl)(3-methoxy-4-(3-(((2-(pyridin-4-yl)pyrrolidin-1-yl)sulfonyl)methyl)phenoxy)pyrrolidin-1-yl)methanone] — lower, 75%
- CO[C@@H]1CN(C(=O)c2cc(C)ccc2C)C[C@H]1Oc1cccc(CS(=O)(=O)N2CCC23CCOC3)c1 (relative stereo) [Example 19, trans-(2,5-dimethylphenyl)(3-methoxy-4-(3-((6-oxa-1-azaspiro[3.4]oct-1-ylsulfonyl)methyl)phenoxy)pyrrolidin-1-yl)methanone] — lower, 67%
- CO[C@@H]1CN(C(=O)c2cc(C)ccc2C)C[C@H]1Oc1cccc(CS(=O)(=O)N2CCC23CCOCC3)c1 (relative stereo) [Example 21, trans-(2,5-dimethylphenyl)(3-methoxy-4-(3-((7-oxa-1-azaspiro[3.5]non-1-ylsulfonyl)methyl)phenoxy)pyrrolidin-1-yl)methanone] — lower, 70%
- CO[C@@H]1CN(C(=O)c2cc(C)ccc2C)C[C@H]1Oc1cccc(NS(=O)(=O)N2CCCC2)c1 (relative stereo) [Example 22, trans-N-(3-((1-(2,5-dimethylbenzoyl)-4-methoxypyrrolidin-3-yl)oxy)phenyl)pyrrolidine-1-sulfonamide] — lower, 65%
- CO[C@@H]1CN(C(=O)c2cc(C)ccc2C)C[C@H]1Oc1cccc(NS(=O)(=O)N2CCCC2C)c1 (relative stereo) [Example 23, trans-N-(3-((1-(2,5-dimethylbenzoyl)-4-methoxypyrrolidin-3-yl)oxy)phenyl)-2-methylpyrrolidine-1-sulfonamide] — lower, 60%
- CO[C@@H]1CN(C(=O)c2cc(C)ccc2C)C[C@H]1Oc1cccc(CS(=O)(=O)N(C)C2CCOCC2)c1 (relative stereo) [Example 31, trans-1-(3-((1-(2,5-dimethylbenzoyl)-4-methoxypyrrolidin-3-yl)oxy)phenyl)-N-methyl-N-(tetrahydro-2H-pyran-4-yl)methanesulfonamide] — lower, 94%
- CO[C@@H]1CN(C(=O)c2cc(C)ccc2C)C[C@H]1Oc1cccc(CS(=O)(=O)N2CCC23CCN(C(=O)OC(C)(C)C)C3)c1 (relative stereo) [Example 33, tert-butyl trans-1-((3-((1-(2,5-dimethylbenzoyl)-4-methoxypyrrolidin-3-yl)oxy)benzyl)sulfonyl)-1,6-diazaspiro[3.4]octane-6-carboxylate] — lower, 105%
- CO[C@@H]1CN(C(=O)c2cc(C)ccc2C)C[C@H]1Oc1cccc(CS(=O)(=O)N2CCC23COC3)c1 (relative stereo) [Example 34, trans-(2,5-dimethylphenyl)(3-methoxy-4-(3-((6-oxa-1-azaspiro[3.3]hept-1-ylsulfonyl)methyl)phenoxy)pyrrolidin-1-yl)methanone] — lower, 87%
- CO[C@@H]1CN(C(=O)c2cc(C)ccc2C)C[C@H]1Oc1cccc(CS(=O)(=O)N2CCCC2Cc2cccnc2)c1 (relative stereo) [Example 36, trans-(2,5-dimethylphenyl)(3-methoxy-4-(3-(((2-(pyridin-3-ylmethyl)pyrrolidin-1-yl)sulfonyl)methyl)phenoxy)pyrrolidin-1-yl)methanone] — lower, 89%
- CO[C@@H]1CN(C(=O)c2cc(C)ccc2C)C[C@H]1Oc1cccc(CS(=O)(=O)N2CCCC2c2ccccc2Cl)c1 (relative stereo) [Example 37, trans-(3-(3-(((2-(2-chlorophenyl)pyrrolidin-1-yl)sulfonyl)methyl)phenoxy)-4-methoxypyrrolidin-1-yl)(2,5-dimethylphenyl)methanone] — lower, 86%
- CO[C@@H]1CN(C(=O)c2cc(C)ccc2C)C[C@H]1Oc1cccc(CS(=O)(=O)N2CCCC2c2ncccn2)c1 (relative stereo) [Example 38, trans-(2,5-dimethylphenyl)(3-methoxy-4-(3-(((2-(pyrimidin-2-yl)pyrrolidin-1-yl)sulfonyl)methyl)phenoxy)pyrrolidin-1-yl)methanone] — lower, 98%
- CO[C@@H]1CN(C(=O)c2cc(C)ccc2C)C[C@H]1Oc1cccc(CS(=O)(=O)N2CCCC2c2cnccn2)c1 (relative stereo) [Example 39, trans-(2,5-dimethylphenyl)(3-methoxy-4-(3-(((2-(pyrazin-2-yl)pyrrolidin-1-yl)sulfonyl)methyl)phenoxy)pyrrolidin-1-yl)methanone] — lower, 76%
